Columns and labels:
T. vaginalis [1] = test: Medium-throughput (MTS) confirmatory dose-response growth assay, T. vaginalis; type: cell-based, Trichomonas vaginalis; conditions: Trichomonas vaginalis; 96-well, 10,000 cells/mL in 50 μL, 48 h, mean ± SEM; >10 = no appreciable activity at highest dose
Experimental: (§1) For microtiter plate assays, trichomonads were grown in anaerobic conditions within GasPak EZ anaerobe pouches with fresh anaerobic sachets. Working reagent of the chromogen was phenol red (Sigma) in a 1% w/v working solution in phosphate buffered saline (PBS), which was filter sterilised. Chromogen absorbance was monitored at 570 nm on an absorbance microplate reader after plates were allowed to equilibrate in atmospheric conditions at room temperature for at least 5 min.
(§2) After absorbances were measured, data were processed as followed unless indicated otherwise in the text. […] Prism 8 (GraphPad) was used to plot dose-response curves and calculate IC50 values, using a least squares regression, log[inhibitor] vs normalised response (variable slope, four parameters) model. Where replicate plates were used, data for dose-response curves were plotted as the mean±SD of these replicates.
(§3) A selection of 17 compounds assayed in the high-throughput screen (HTS) for T. vaginalis which were available through BioAustralis were obtained for validation of inhibitory in/activity in our optimised medium-throughput format. For this, a 10-point serial dilution was used for drug-susceptibility testing to calculate IC50 values of ‘hit’ compounds. Mtz was used as a positive control. Each screen was performed with 3 technical replicates and a minimum of 2 biological replicates in both T. vaginalis and T. foetus using assay conditions of seeds of 10,000 cells/mL in 50 μL, with absorbance measured at 48 h. Dose response curves and IC50 were calculated for each compound as described above in Section 2.3.

T. foetus [2] = test: Medium-throughput (MTS) confirmatory dose-response growth assay, T. foetus; type: cell-based, Tritrichomonas foetus; conditions: Tritrichomonas foetus; 96-well, 10,000 cells/mL in 50 μL, 48 h, mean ± SEM; >10 = no appreciable activity at highest dose
Experimental: as §1, §2, §3

T. vaginalis [3] = test: Pre-optimisation Mtz drug-sensitivity testing, 96-well, T. vaginalis; type: cell-based; conditions: Trichomonas vaginalis
Experimental: as §1, §2
(§4) Trichomonad growth assays were assessed via Mtz drug-sensitivity testing in a medium throughput format (96-wells). Mtz was screened as two-fold, 10-point dilutions between 100 and 0.2 μM. For both T. foetus and T. vaginalis conditions were 5% (v/v) chromogen, well volumes of 100 μL and 200 μL and seeds of 10,000 and 20,000 cells/mL, and absorbance measured at 40 and 65 h. Mtz dose-response curves were plotted and Mtz IC50 calculated for both species, as well as the Z′ for each combination of conditions (volume, seed, timepoint) based on 4 technical replicates as described in Section 2.3.

T. foetus [4] = test: Pre-optimisation Mtz drug-sensitivity testing, 96-well, T. foetus; type: cell-based; conditions: Tritrichomonas foetus
Experimental: as §1, §2, §4

T. vaginalis [5] = test: Miniaturised Mtz drug-sensitivity assay, 96-well plates; type: cell-based; conditions: Trichomonas vaginalis
Experimental: as §1, §2
(§5) Miniaturised assay formats were assessed via Mtz drug-sensitivity for T. vaginalis in 96-well and 384-well plate formats using 5% (v/v) chromogen. For medium-throughput formats, seeds of 15,000 and 50,000 cells/mL were used in well volumes of 50 μL and 100 μL. For high-throughput formats, 25 μL well volumes were evaluated using seeds of 10,000, 20,000 and 40,000 cells/mL, while 50 μL well volumes used seeds of 5000, 10,000 and 20,000 cells/mL.

T. vaginalis [6] = test: Miniaturised Mtz drug-sensitivity assay, 384-well plates; type: cell-based; conditions: Trichomonas vaginalis
Experimental: as §1, §2, §5

Structure (SMILES): Cc1ncc([N+](=O)[O-])n1CCO [Metronidazole]
- IC50 (T. vaginalis [1]): 1.4 ± 0.2 µM
- IC50 (T. foetus [2]): 1.2 ± 0.1 µM
- IC50 (T. vaginalis [3]; 40 h, Cα: 10 cells/µL, 100 µL, 40 h, read-out: Mtz IC50 T. vaginalis): 1630 nM
- IC50 (T. vaginalis [3]; 40 h, Cβ: 20 cells/µL, 100 µL, 40 h, read-out: Mtz IC50 T. vaginalis): 2640 nM
- IC50 (T. vaginalis [3]; 40 h, Cγ: 10 cells/µL, 200 µL, 40 h, read-out: Mtz IC50 T. vaginalis): 1630 nM
- IC50 (T. vaginalis [3]; 40 h, Cδ: 20 cells/µL, 200 µL, 40 h, read-out: Mtz IC50 T. vaginalis): 2160 nM
- IC50 (T. vaginalis [3]; 40 h, pre-optimisation, 40 h, read-out: Mtz IC50 T. vaginalis, across conditions): 2000 ± 200 nM
- IC50 (T. vaginalis [3]; 65 h, Cα: 10 cells/µL, 100 µL, 65 h, read-out: Mtz IC50 T. vaginalis): 3090 nM
- IC50 (T. vaginalis [3]; 65 h, Cβ: 20 cells/µL, 100 µL, 65 h, read-out: Mtz IC50 T. vaginalis): 3210 nM
- IC50 (T. vaginalis [3]; 65 h, Cγ: 10 cells/µL, 200 µL, 65 h, read-out: Mtz IC50 T. vaginalis): 2670 nM
- IC50 (T. vaginalis [3]; 65 h, Cδ: 20 cells/µL, 200 µL, 65 h, read-out: Mtz IC50 T. vaginalis): 3190 nM
- IC50 (T. vaginalis [3]; 65 h, pre-optimisation, 65 h, read-out: Mtz IC50 T. vaginalis, across conditions): 3000 ± 100 nM
- IC50 (T. foetus [4]; 40 h, Cα: 10 cells/µL, 100 µL, 40 h, read-out: Mtz IC50 T. foetus): 1170 nM
- IC50 (T. foetus [4]; 40 h, Cβ: 20 cells/µL, 100 µL, 40 h, read-out: Mtz IC50 T. foetus): 1310 nM
- IC50 (T. foetus [4]; 40 h, Cγ: 10 cells/µL, 200 µL, 40 h, read-out: Mtz IC50 T. foetus): 1190 nM
- IC50 (T. foetus [4]; 40 h, Cδ: 20 cells/µL, 200 µL, 40 h, read-out: Mtz IC50 T. foetus): 1230 nM
- IC50 (T. foetus [4]; 40 h, pre-optimisation, 40 h, read-out: Mtz IC50 T. foetus, across conditions): 1200 nM
- IC50 (T. foetus [4]; 65 h, Cα: 10 cells/µL, 100 µL, 65 h, read-out: Mtz IC50 T. foetus): 2170 nM
- IC50 (T. foetus [4]; 65 h, Cβ: 20 cells/µL, 100 µL, 65 h, read-out: Mtz IC50 T. foetus): 2700 nM
- IC50 (T. foetus [4]; 65 h, Cγ: 10 cells/µL, 200 µL, 65 h, read-out: Mtz IC50 T. foetus): 2070 nM
- IC50 (T. foetus [4]; 65 h, Cδ: 20 cells/µL, 200 µL, 65 h, read-out: Mtz IC50 T. foetus): 2380 nM
- IC50 (T. foetus [4]; 65 h, pre-optimisation, 65 h, read-out: Mtz IC50 T. foetus, across conditions): 2300 ± 100 nM
- IC50 (T. vaginalis [5]; 24 h, C2: 96-well, 50 cells/µL, 50 µL, 24 h): 2180 nM
- IC50 (T. vaginalis [5]; 24 h, C3: 96-well, 15 cells/µL, 100 µL, 24 h): 2910 nM
- IC50 (T. vaginalis [5]; 24 h, C4: 96-well, 50 cells/µL, 100 µL, 24 h): 2230 nM
- IC50 (T. vaginalis [5]; 36 h, C1: 96-well, 15 cells/µL, 50 µL, 36 h): 1160 nM
- IC50 (T. vaginalis [5]; 36 h, C2: 96-well, 50 cells/µL, 50 µL, 36 h): 3740 nM
- IC50 (T. vaginalis [5]; 36 h, C3: 96-well, 15 cells/µL, 100 µL, 36 h): 1340 nM
- IC50 (T. vaginalis [5]; 36 h, C4: 96-well, 50 cells/µL, 100 µL, 36 h): 3450 nM
- IC50 (T. vaginalis [5]; 48 h, C1: 96-well, 15 cells/µL, 50 µL, 48 h): 1580 nM
- IC50 (T. vaginalis [5]; 48 h, C2: 96-well, 50 cells/µL, 50 µL, 48 h): 3490 nM
- IC50 (T. vaginalis [5]; 48 h, C3: 96-well, 15 cells/µL, 100 µL, 48 h): 1960 nM
- IC50 (T. vaginalis [5]; 48 h, C4: 96-well, 50 cells/µL, 100 µL, 48 h): 5010 nM
- IC50 (T. vaginalis [6]; 24 h, C5: 384-well, 250 cells/well, 25 µL, 24 h): 1220 nM
- IC50 (T. vaginalis [6]; 24 h, C6: 384-well, 500 cells/well, 25 µL, 24 h): 2020 nM
- IC50 (T. vaginalis [6]; 24 h, C7: 384-well, 1000 cells/well, 25 µL, 24 h): 3210 nM
- IC50 (T. vaginalis [6]; 24 h, C8: 384-well, 250 cells/well, 50 µL, 24 h): 759 nM
- IC50 (T. vaginalis [6]; 24 h, C9: 384-well, 500 cells/well, 50 µL, 24 h): 1360 nM
- IC50 (T. vaginalis [6]; 24 h, C10: 384-well, 1000 cells/well, 50 µL, 24 h): 2330 nM
- IC50 (T. vaginalis [6]; 36 h, C5: 384-well, 250 cells/well, 25 µL, 36 h): 623 nM
- IC50 (T. vaginalis [6]; 36 h, C6: 384-well, 500 cells/well, 25 µL, 36 h): 888 nM
- IC50 (T. vaginalis [6]; 36 h, C7: 384-well, 1000 cells/well, 25 µL, 36 h): 1890 nM
- IC50 (T. vaginalis [6]; 36 h, C8: 384-well, 250 cells/well, 50 µL, 36 h): 672 nM
- IC50 (T. vaginalis [6]; 36 h, C9: 384-well, 500 cells/well, 50 µL, 36 h): 703 nM
- IC50 (T. vaginalis [6]; 36 h, C10: 384-well, 1000 cells/well, 50 µL, 36 h): 893 nM
- IC50 (T. vaginalis [6]; 48 h, C5: 384-well, 250 cells/well, 25 µL, 48 h): 1550 nM
- IC50 (T. vaginalis [6]; 48 h, C6: 384-well, 500 cells/well, 25 µL, 48 h): 2900 nM
- IC50 (T. vaginalis [6]; 48 h, C7: 384-well, 1000 cells/well, 25 µL, 48 h): 4310 nM
- IC50 (T. vaginalis [6]; 48 h, C8: 384-well, 250 cells/well, 50 µL, 48 h): 1340 nM
- IC50 (T. vaginalis [6]; 48 h, C9: 384-well, 500 cells/well, 50 µL, 48 h): 1500 nM
- IC50 (T. vaginalis [6]; 48 h, C10: 384-well, 1000 cells/well, 50 µL, 48 h): 3030 nM

Source: publication PMC7897990, “TriTOX: A novel Trichomonas vaginalis assay platform for high-throughput screening of compound libraries” (International Journal for Parasitology: Drugs and Drug …, 2021)
